Experimental findings from patent US20090320718A1, “FLUOROSURFACTANTS” (priority 2006, published 2009) are described below.

The series is described as follows: Determination of the surface tension (Kruss tensiometer K12, ring method). Format: physicochemical. Particulars: for surface tension: measurement solutions in deionised water, 20° C. The method, then: • Instrument: Kruss tensiometer (model K12) • Temperature of the measurement solutions: 20° C. • Measurement module employed: ring • Concentration of the measurement solutions: about 0.5 to 3.0 g/l in deionised water
Further details on the method are given in the European Commission publication: Classification, Packaging and Labelling of Dangerous Substances in the European Union, Part II-Test Methods, Annex V-Methods for Determining the Physical-Chemical Properties, the Toxicity and the Ecotoxicity, Part A, Surface Tension (A.5), January 1997, pages 51-57, and also the OECD Guideline for the Testing of Chemicals, Section 1, Physical-Chemical Properties, method 115, pages 1-7, adopted: 27.07.95, the contents of which in this respect are expressly part of the disclosure content of the present application.

One may read the surface tension as the force per length acting along the surface. “11-(S-trifluoromethyl)mercaptoundecane-1-sulfonic acid sodium salt [CF3—S—(CH2)11—SO3Na]” displayed a surface tension (concentration: 99.8 mg/100 ml) of 31.29 mN/m. In turn, `O=S(=O)([O-])CCCCCCCCCCCSCCC(F)(F)F.[Na+]` [CF3—CH2—CH2—S—(CH2)11—SO3Na] registered a surface tension (Concentration: 100.7 mg/100 ml) of 38.55 mN/m. With `O=C(O)CCCCCCCCCCSCCC(F)(F)F` [Example 5c, 11-(3,3,3-Trifluoropropylsulfanyl)undecanoic acid], the “Surface tension of an aqueous solution of the sodium salt” value (at 0.016 mol/l, sodium salt (2 eq of NaOH/eq of carboxylic acid)) worked out at 33.4 mN/m.
